Assay results reported in the NIST ThermoML archive (doi:10.1016/j.fluid.2006.08.018).
± gives the expanded uncertainty stated by the source.

How the values were obtained:
[1] = Liquid; for mass density: 101.33 kPa
[2] = refractive index (Na D-line) (dimensionless); details: 101.33 kPa, Liquid, Standard Abbe refractometry

mass density ([1]; 298.15 K) [kg/m3] | refractive index ([2]; 298.15 K) | SMILES | mass density ([1]; 293.15 K) [kg/m3] | refractive index ([2]; 293.15 K) | further results
– | – | ClC=C(Cl)Cl [trichloroethene] | 1464 ± 4.6 | 1.4782 ± 0.0008 | vapor or sublimation pressure ([1]; 357.85 K): 95.5 ± 4 kPa
– | – | ClC(Cl)C(Cl)Cl [1,1,2,2-tetrachloroethane] | 1594.5 ± 5.1 | 1.494 ± 0.0008 | vapor or sublimation pressure ([1]; 417.25 K): 95.5 ± 4 kPa
781.2 ± 2.1 | 1.3852 ± 0.0008 | CC(C)(C)O [2-methylpropan-2-ol] | – | – | vapor or sublimation pressure ([1]; 354.15 K): 95.5 ± 4 kPa
– | – | ClC(Cl)=C(Cl)Cl [tetrachloroethene] | 1622.8 ± 5.3 | 1.5058 ± 0.0008 | vapor or sublimation pressure ([1]; 392.15 K): 95.5 ± 4 kPa
802.4 ± 2.2 | 1.3953 ± 0.0008 | CCC(C)O (configuration not stated) [butan-2-ol] | – | – | vapor or sublimation pressure ([1]; 371.25 K): 95.5 ± 4 kPa
– | – | ClCCCl [1,2-dichloroethane] | 1252.1 ± 3.8 | 1.4448 ± 0.0008 | vapor or sublimation pressure ([1]; 355.15 K): 95.5 ± 4 kPa
784.9 ± 2.1 | 1.3591 ± 0.0008 | CCO [ethanol] | – | – | vapor or sublimation pressure ([1]; 349.95 K): 95.5 ± 4 kPa
797.8 ± 2.1 | 1.3939 ± 0.0008 | CC(C)CO [2-methyl-1-propanol] | – | – | vapor or sublimation pressure ([1]; 379.76 K): 95.5 ± 5 kPa
943.9 ± 2.5 | 1.4282 ± 0.0007 | CN(C)C=O [dimethylformamide] | – | – | vapor or sublimation pressure ([1]; 421.15 K): 95.5 ± 4 kPa
